Reference: patent publication US20040023972A1, “Use of substituted imidazo[1,2-a]-pyridin-, -pyrimidin-and-pyrazin-3-yl-amine derivatives in the preparation of medicaments for inhibiting NOS” (Gruenenthal GmbH, priority 2000, published 2004)

Target: T1, NO synthase (Rattus norvegicus, UniProt P29476)
T1 construct: the supernatant was then removed by decantation and frozen in portions at −80° C; from tissue; host or cells: rat cerebellum, 20,000 g supernatant of homogenate
Test: HTS-NOS assay (NOS assay): conversion of radioactive arginine, cation-exchanger filter plate
Assay type: biochemical
Details: 10 μM
Summary of the method: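 Rat cerebellum supernatant as NOS source, incubated with radiolabelled arginine plus cofactors including NADPH at 25 °C for 5-60 min depending on enzyme activity. Unconverted arginine was trapped on a cation-exchange filter plate, citrulline washed out, and bound arginine counted by scintillation; % inhibition versus no-compound reactions.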

Compound | HTS-NOS assay: % inhibition (10 μM) [%]
[C-]#[N+]CCCCCCN(C(C)=O)c1c(-c2ccccc2OC)nc2cc(C)ccn12 [Example 281, (6-{acetyl-[2-(2-methoxy-phenyl)-7-methyl-imidazo[1,2-a]pyridin-3-yl]-amino}-hexyl)-methylidyne-ammonium] | 62
[C-]#[N+]CCCCCCN(C(C)=O)c1c(-c2ccco2)nc2cc(C)cc(C)n12 [Example 159, {6-[acetyl-(2-furan-2-yl-5,7-dimethyl-imidazo[1,2-a]pyridin-3-yl)-amino]-hexyl}-methylidyne-ammonium] | 61
Cc1cc(C)n2c(Nc3c(C)cccc3C)c(-c3ccccc3F)nc2c1 [Example 34] | 61
Cc1ccn2c(NC3CCCCC3)c(-c3ccccc3C)nc2c1 [Example 10, Cyclohexyl-(7-methyl-2-o-tolyl-imidazol[1,2-a]pyridin-3-yl)-amine] | 54
[C-]#[N+]CCCCCCNc1c(-c2cc3ccccc3c3ccccc23)nc2cc(C)ccn12 [Example 118, Methylidyne-[6-(7-methyl-2-phenanthren-9-yl-imidazo[1,2-a]pyridin-3-ylamino)-hexyl]-ammonium] | 56
CC(=O)OCc1ccc(-c2nc3cccc(C)n3c2N(C(C)=O)C2CCCCC2)o1 [Example 260, acetic acid 5-[3-(acetyl-cyclohexyl-amino)-5-methyl-imidazo[1,2-a]pyridin-2-yl]-furan-2-yl methyl ester] | 51
C#[N+]CCCCCCNc1c(-c2cccc3ccccc23)nc2cc(C)ccn12 [Example 122, Methylidyne-[6-(7-methyl-2-naphthalen-1-yl-imidazo[1,2-a]pyridin-3-ylamino)-hexyl]-ammonium] | 53
C#[N+]CCCCCCNc1c(-c2ccccc2C(F)(F)F)nc2cc(C)cc(C)n12 [Example 75, {6-[5,7-Dimethyl-2-(2-trifluorO-methyl-phenyl)-imidazo[1,2-a]pyridin-3-ylamino]-hexyl}-methylidyne-ammonium] | 56

Same assay, conditions: read-out: HTS-NOS assay: % inhibition (10 μM)

inhibition at 10 µM [%] | Compound
53 | Cc1ccn2c(Nc3c(C)cccc3C)c(-c3cc4ccccc4o3)nc2c1 [Example 90, (2-benzofuran-2-yl-7-methyl-imidazo[1,2-a]-pyridin-3-yl)-(2,6-dimethyl-phenyl)-amine]
67 | Cc1ccn2c(NC(C)(C)C)c(-c3cccc4ccccc34)nc2c1 [Example 33, Tert-butyl-(7-methyl-2-naphthalen-1-yl-imidazo[1,2-a]pyridin-3-yl)-amine]
54 | CCCCN(C(C)=O)c1c(-c2ccccc2C)nc2ncccn12 [Example 206, N-butyl-N-(2-o-tolyl-imidazo[1,2-a]pyrimidin-3-yl)acetamide]
69 | Cc1ccn2c(Nc3c(C)cccc3C)c(-c3cccc(Cl)c3Cl)nc2c1 [Example 47, [2-(2,3-Dichloro-phenyl)-7-methyl-imidazo[1,2-a]pyridin-3-yl]-(2,6-dimethyl-phenyl)-amine]
54 | Cc1cc(C)n2c(NC3CCCCC3)c(-c3ccc(C(=O)O)o3)nc2c1 [Example 87, 5-(3-Cyclohexylamino-5,7-dimethyl-imidazo[1,2-a]pyridin-2-yl)-furan-2-carboxylic acid]
52 | COc1cc(-c2nc3ncccn3c2N(C(C)=O)C2CCCCC2)ccc1OC(C)=O [Example 270, acetic acid 4-[3-(acetyl-cyclohexyl-amino)-imidazo[1,2-a]pyrimidin-2-yl]-2-methoxy-phenyl ester]
67 | Cc1ccn2c(NC(C)(C)C)c(-c3ccccn3)nc2c1 [Example 76, Tert-butyl-(7-methyl-2-pyridin-2-yl-imidazo[1,2-a]pyridin-3-yl)-amine]
61 | Cc1cc(C)n2c(Nc3c(C)cccc3C)c(-c3cccc(O)c3)nc2c1 [Example 129, 3-[3-(2,6-Dimethyl-phenylamino)-5,7-dimethyl-imidazo[1,2-a]pyridin-2-yl]-phenol]
50 | Cc1ccn2c(NC(C)(C)CC(C)(C)C)c(-c3ccco3)nc2c1 [Example 28, (2-Furan-2-yl-7-methyl-imidazo[1,2-a]-pyridin-3-yl)-(1,1,3,3-tetramethyl-butyl)-amine]
64 | Cc1ccn2c(NC3CCCCC3)c(-c3ccc(C(=O)O)o3)nc2c1 [Example 91, 5-(3-Cyclohexylamino-7-methyl-imidazo[1,2-a]pyridin-2-yl)-furan-2-carboxylic acid]
53 | COc1ccccc1-c1nc2cc(C)ccn2c1Nc1c(C)cccc1C [Example 72, (2,6-Dimethyl-phenyl)-[2-(2-methoxy-phenyl)-7-methyl-imidazo[1,2-a]pyridin-3-yl]-amine]
61 | Cc1cc(C)n2c(Nc3c(C)cccc3C)c(-c3cccc(Cl)c3Cl)nc2c1 [Example 78, [2-(2,3-Dichlorophenyl)-5,7-dimethyl-imidazo[1,2-a]pyridin-3-yl]-(2,6-dimethyl-phenyl)-amine]

Further lines, the compound ahead of its results:

Compound | inhibition at 10 µM [%]
CCCCN(C(C)=O)c1c(-c2cc(OC)c(OC)c(OC)c2)nc2cnccn12 [Example 283, N-butyl-N-[2-(3,4,5-trimethoxy-phenyl)-imidazo[1,2-a]pyrazin-3-yl]-acetamide] | 51
CC(=O)N(c1c(-c2ccncc2)nc2cc(C)ccn12)C(C)(C)CC(C)(C)C [Example 166, N-(7-methyl-2-pyridin-4-yl-imidazo[1,2-a]pyridin-3-yl)-N-(1,1,3,3-tetramethylbutyl)-acetamide] | 61
CC(=O)N(c1c(C)cccc1C)c1c(-c2cccc(O)c2)nc2nc(C)cc(C)n12 [Example 272, N-(2,6-dimethyl-phenyl)-N-[2-(3-hydroxy-phenyl)-5,7-dimethyl-imidazo[1,2-a]-pyrimidin-3-yl]-acetamide] | 54
Cc1ccn2c(NC(C)(C)CC(C)(C)C)c(C)nc2c1 [Example 40, (2,7-Dimethyl-imidazo[1,2-a]pyridin-3-yl)-(1,1,3,3-tetramethyl-butyl)-amine] | 61
CC(=O)N(c1c(-c2ccc(C(=O)O)o2)nc2cc(C)ccn12)C(C)(C)C [Example 201, 5-[3-(acetyl-tert-butyl-amino)-7-methyl-imidazo[1,2-a]pyridin-2-yl]-furan-2-carboxylic acid] | 54
CCCCNc1c(-c2ccc(N(C)C)c3ccccc23)nc2cnccn12 [Example 136, Butyl-[2-(4-dimethylamino-naphthalen-1-yl)-imidazo[1,2-a]pyrazin-3-yl]-amine] | 56
Cc1cc(C)n2c(NC(C)(C)C)c(-c3ccc([N+](=O)[O-])o3)nc2c1 [Example 51, Tert-butyl-[5,7-dimethyl-2-(5-nitro-furan-2-yl)-imidazo[1,2-a]pyridin-3-yl]-amine] | 59
CC(=O)N(c1c(-c2ccc([N+](=O)[O-])o2)nc2cc(C)ccn12)C(C)(C)C [Example 198, N-tert-butyl-N-[7-methyl-2-(5-nitro-furan-2-yl)-imidazo[1,2-a]pyridin-3-yl]-acetamide] | 54
Cc1cc(C)n2c(NC(C)(C)CC(C)(C)C)c(-c3cccc(Cl)c3Cl)nc2c1 [Example 84, [2-(2,3-Dichlorophenyl)-5,7-dimethyl-imidazo[1,2-a]pyridin-3-yl]-(1,1,3,3-tetramethyl-butyl)-amine] | 54
CCCCN(C(C)=O)c1c(-c2ccc(Cl)cc2Cl)nc2ncccn12 [Example 223, N-butyl-N-[2-(2,4-dichloro-phenyl)-imidazo[1,2-a]pyrimidin-3-yl]-acetamide] | 62
CC(=O)N(c1c(-c2ccc(C)cc2)nc2ccc(C)cn12)C(C)(C)CC(C)(C)C [Example 242, N-(6-methyl-2-p-tolyl-imidazo[1,2-a]pyridin-3-yl)-N-(1,1,3,3-tetramethyl-butyl)-acetamide] | 58
CC(=O)N(c1c(C)nc2c(Br)cc(Br)cn12)C(C)(C)C [Example 288, N-tert-butyl-N-(6,8-dibromo-2-methyl-imidazo[1,2-a]pyridin-3-yl)-acetamide] | 62
CC(=O)N(c1c(C2CCCCC2)nc2cc(C)cc(C)n12)C(C)(C)C [Example 157, N-tert-butyl-N-(2-cyclohexyl-5,7-dimethyl-imidazo[1,2-a]pyridin-3-yl)-acetamide] | 63
COc1ccc(-c2nc3cc(C)ccn3c2NC(C)(C)CC(C)(C)C)cc1OC [Example 6, [2-(3,4-Dimethoxy-phenyl)-7-methyl-imidazo[1,2-a]pyridin-3-yl]-(1,1,3,3-tetramethyl-butyl)-amine] | 53
Cc1ccn2c(NC(C)(C)CC(C)(C)C)c(-c3ccc(-c4cccc(Cl)c4)o3)nc2c1 [Example 98, {2-[5-(3-Chlorophenyl)-furan-2-yl]-7-methyl-imidazo[1,2-a]pyridin-3-yl}-(1,1,3,3-tetramethyl-butyl)-amine] | 62
Cc1ccn2c(NC(C)(C)CC(C)(C)C)c(-c3ccc(C(=O)O)o3)nc2c1 [Example 81, 5-[7-Methyl-3-(1,1,3,3-tetramethyl-butylamino)-imidazo[1,2-a]pyridin-2-yl]-furan-2-carboxylic acid] | 60
CC(=O)N(c1c(-c2ccco2)nc2cc(C)ccn12)C(C)(C)C [Example 190, N-tert-butyl-N-(2-furan-2-yl-7-methyl-imidazo[1,2-a]pyridin-3-yl)-acetamide] | 69
Cc1cc(C)n2c(NC(C)(C)CC(C)(C)C)c(-c3ccc(CO)o3)nc2c1 [Example 62, {5-[5,7-Dimethyl-3-(1,1,3,3-tetramethyl-butylamino)-imidazo[1,2-a]pyridin-2-yl]-furan-2-yl}-methanol] | 55
CC(=O)N(c1c(-c2ccc(C(=O)O)s2)nc2ccccn12)C(C)(C)C [Example 218, 5-[3-(acetyl-tert-butyl-amino)-imidazo[1,2-a]pyridin-2-yl]-thiophene-2-carboxylic acid] | 60
